Here are results for three molecules from patent US8399520B2, “Selective estrogen receptor modulator” (Eisai R&D Management Co., Ltd., priority 2002, dated 2013).

Data set [1] addresses T1, estrogen receptor derived from bovine uterus (Bos taurus, UniProt P49884).
T1 construct: estrogen receptor derived from bovine uterus was diluted with the assay buffer solution so that 10 to 20 μg total protein was present; from tissue; host or cells: bovine uterus
T1 sequence (P49884 1-596): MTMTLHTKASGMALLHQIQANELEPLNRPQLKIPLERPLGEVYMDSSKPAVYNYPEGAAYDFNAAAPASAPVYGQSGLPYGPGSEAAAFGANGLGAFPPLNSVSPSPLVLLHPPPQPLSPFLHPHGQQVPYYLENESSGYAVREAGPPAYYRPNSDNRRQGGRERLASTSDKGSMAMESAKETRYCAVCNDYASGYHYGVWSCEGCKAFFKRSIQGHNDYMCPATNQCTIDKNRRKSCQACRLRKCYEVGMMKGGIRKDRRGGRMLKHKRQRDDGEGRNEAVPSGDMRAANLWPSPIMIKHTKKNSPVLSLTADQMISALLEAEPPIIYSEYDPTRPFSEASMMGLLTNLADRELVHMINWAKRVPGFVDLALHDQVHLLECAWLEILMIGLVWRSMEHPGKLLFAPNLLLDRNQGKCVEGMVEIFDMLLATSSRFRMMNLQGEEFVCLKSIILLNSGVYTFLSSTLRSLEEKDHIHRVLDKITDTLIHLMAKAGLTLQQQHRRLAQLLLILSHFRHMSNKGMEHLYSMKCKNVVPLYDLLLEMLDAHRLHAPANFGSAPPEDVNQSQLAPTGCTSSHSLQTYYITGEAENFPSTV
The data set can be described thus: In vitro estrogen receptor binding assay. As to conditions: read-out: Estrogen receptor binding affinity: Ki. The procedure:
The binding affinity of the compound according to the present invention to estrogen receptor was measured using an in vitro estrogen receptor binding assay. The binding affinity measures the ability of the compound according to the present invention to remove [^3H]-estradiol from estrogen receptor derived from bovine uterus. The following materials were used in this assay: (1) the assay buffer solution was 20 mM Tris/HCl (pH 7.5) containing 1 mM dithiothreitol (DTT), 1 mM EDTA and 10% glycerol; (2) radioactive ligand was [^3H]-estradiol purchased from Amersham Life Science; (3) the cold ligand was diethylstilbestrol purchased from sigma (Sigma); and (4) the estrogen receptor was derived from bovine uterus. The compound to be tested was prepared as a 10% DMSO solution. [^3H]-estradiol was dissolved in the assay buffer solution so as to obtain a final concentration of 1 nM. […] Each plate contains total binding, non-specific binding and the binding which were not inhibited by various concentrations of the compound. The plate was incubated for 1 hour at room temperature. […] These mixtures were centrifuged, and the supernatant thereof was evaluated for its radioactivity using a liquid scintillation counter. Specific binding was calculated by subtracting non-specific binding dpm (counts remaining in the supernatant obtained by centrifugal separation of a reaction mixture containing estrogen receptor derived from bovine uterus, radioactive ligand and excess cold ligand) from the total binding dpm (counts remaining in the supernatant obtained by centrifugal separation of a reaction mixture containing estrogen receptor derived from bovine uterus and radioactive ligand only). The effectiveness of the compound was evaluated by Ki. […] C is the concentration of [^3H]-estradiol in the reaction mixture, and Kd is the [^3H]-estradiol dissociation constant. The Kd was determined by Scatchard analysis. That is to say, various concentrations of [^3H]-estradiol were used to measure the concentration of specifically bound [^3H]-estradiol, which served as the horizontal axis, the value which was obtained by dividing the concentration of specifically bound [^3H]-estradiol by the concentration [^3H]-estradiol not bound to the receptor served as the vertical axis to produce a plot, and the negative value of the inverse of the slope of the resulting straight line was used as Kd.

The test system of data set [2] is MCF-7 breast cancer cells. The data set can be described thus: MCF-7 growth analysis (estrogen agonist and antagonist activity, MTT assay). The class given is cell-based. As to conditions: Homo sapiens; for activity at 0.1 µM: MCF7, MCF-7, 72 hours, growth rate of diluent control = 100, of 17β-estradiol (1 nM) = 200, read-out: Agonist activity: growth rate (100 nM test compound); for IC50: MCF7, MCF-7 growth with 17β-estradiol (10 pM) present simultaneously, 72 hours. The procedure: Test Example 2 determines the estrogen agonist and antagonist activities of the compound according to the present invention in reproduction system cells. […] The present test was carried out according to the following procedures. MCF-7 breast cancer cells were cultured in the preservation medium until the compound evaluation. The preservation medium is the MEM (minimum essential medium, phenol red-free, Gibco, ##51200-038) supplemented with 10% (volume/volume) fetal bovine serum (FBS), 2 mM L-glutamine, 1 mM sodium pyruvate, non-essential amino acids (0.1 mM, Gibco, #15240-062), and antibiotic-antimycotic solution ( 1/50 of culture medium volume, Gibco). Five days prior to analysis, the preservation medium was exchanged with analytical medium to which 10% charcoal-stripped fetal bovine serum (charcoal-FBS) was added instead of 10% FBS, so as to deprive the MCF-7 cells of endogenous steroids. Twenty-four hours after exchange to the analytical medium, the MCF-7 cells were removed from the preservation flask using cell isolation medium (trypsin-EDTA solution, Gibco). The cells were washed with analytical medium once, and cell suspension at 50,000 cell/ml was prepared using the analytical medium. The prepared cell suspension was added to a 96 well flat-bottomed microculture at […] (5,000 cells) per well, the cells were cultured in a 5% CO2 incubator for 24 hours at 37° C., to equilibrate the cells after cell transfer. […] The cells were further cultured in the 5% CO2 incubator for 72 hours at 37° C. After culturing, the cell growth was examined by the MTT assay. MTT assay was carried out as the following protocols. MTT solution at 8 mg/ml (MTT dissolved in phosphate saline water buffer) was added to the microculture at 10 μl/well, and the cells were cultured in the 5% CO2 incubator for 30 minutes at 37° C. Thereafter, resulting from the reduction of MTT by the cells, formazan crystals were dissolved by adding a dissolution buffer (400 g/l of an aqueous solution of SDS (50%) and dimethylformamide (50%)) to the microculture at 100 μl/well, and incubated the microculture for more than 4 hours in the dark. For each well of the microculture, the optical density at 590 nm due to the dissolved formazan crystals was measured.

Data set [3] deals with ovariectomized rats. Description: Bone resorption in ovariectomized rats: deoxypyridinoline in urine. The class given is in vivo, rat. As to conditions: for Deoxypyridinoline, 5 weeks / Deoxypyridinoline, 8 weeks: OVX rats, urine; for Effect on excretion of deoxypyridinoline in urine (in words): ovariectomized rats, after 5 and 8 weeks administrations. The text has this: (§1) Ten weeks old Female Fischer rats (F344/N, Japan SLC, Shizuoka, Japan) were used. Rats were grouped to eliminate the effect of body weight between each group and housed with free access to food and water. Animals were anesthetized with Nembutal (Abbott Laboratories, Chicago, Ill.) and the ovaries were removed. In sham-operated group, ovaries were only touched with tweezers. Administration of compounds was started one day after the operation.
(§2) Estradiol (Sigma-Aldrich, St. Louis, Mo.) was dissolved in DMSO to 150 mg/mL then diluted with sesame oil to 0.15 mg/mL. The compounds in Examples 736 and 814, and Raloxifene were suspended in sesame oil to 5, 5 and 1.5 mg/mL, respectively. Samples were divided into aliquots for daily administration and preserved at −18° C. until use.
(§3) The samples were orally administered at 2 mL/kg. Administration was carried out once a day from Monday to Friday for 8 weeks.
Urine was gathered overnight (17 hours) using the metabolic cage under fasting. The amount of urinary deoxypyridinoline was measured with ELISA kit, Osteorincs-DPD (Sumitomo Seiyaku Biomedical Co., Ltd., Osaka, Japan) and evaluated as total amount produced in 17 hours or as the amount per 1 mg of creatinine.

The test system of data set [4] is ovariectomized rats. Description: Ovariectomized rats: bone density of femur and fifth lumbar vertebrae. The conditions noted are these: for Bone Mineral Density, Distal femur / Bone Mineral Density, Lumber 5 / Bone Mineral Density, Whole femur: OVX rats, 8 weeks; for Effect on bone mineral density of femur and fifth lumbar vertebrae (in words): ovariectomized rats, eight weeks after ovariectomy, compared with sham-operated rats. The class given is in vivo, rat.
Text: as §1, §2, §3
After animals were sacrificed by decapitation, left femur and the fifth lumbar vertebrae were removed. The bone density was measured by using QDR-1000/W (Ho logic Inc., Bedford, Mass.).

For data set [5], the system named is ovariectomized rats. The data set can be described thus: Ovariectomized rats: uterus wet weight. The class given is in vivo, rat. As to conditions: rat, in vivo.
Text: as §1, §2, §3
After animals were sacrificed by decapitation, uterus was removed and adipose tissue and vagina was separated from uterus prior to uterus weight measurement.

Where [6] appears, read: 10 mg/kg orally once a day Monday to Friday.
Setting [7] is: 3 mg/kg orally once a day Monday to Friday.

The structures appear in SMILES notation.

As to `CCNCCc1ccc(CN(CC)c2cc(OC)ccc2[C@@H]2CCc3cc(O)ccc3C2)cc1` [Example 736, (R)-6-{2-{Ethyl[4-(2-ethylaminoethyl)benzyl]amino}-4-methoxyphenyl}-5,6,7,8-tetrahydronaphthalen-2-ol], the Ki (as a rule, a dissociation constant, usually derived from enzyme kinetics or from competition with a known ligand) in data set [1] amounted to 6 nM. Further, in data set [2], the activity at 0.1 µM came out at 73% and the IC50 (in general, the point on the concentration scale where inhibition reaches its midpoint) was 0.74 nM. Moreover, in the data set on ovariectomized rats [3] (setting [6]), the “Deoxypyridinoline, 5 weeks” value came to 10.48 ± 0.52 nM/mg/dl and the “Deoxypyridinoline, 8 weeks” value is given as 15.33 ± 0.78 nM/mg/dl. Further, the “Effect on excretion of deoxypyridinoline in urine (in words)” value in the data set with ovariectomized rats [3] is recorded as “significantly attenuated the excretion of deoxypyridinoline”. Further, in the data set with ovariectomized rats [4] (10 mg/kg orally), the “Bone Mineral Density, Distal femur” value was found to be 0.256 ± 0.002 g/cm^2; the “Bone Mineral Density, Lumber 5” value was determined as 0.156 ± 0.003 g/cm^2; the “Bone Mineral Density, Whole femur” value is 0.241 ± 0.002 g/cm^2. Besides, in the data set with ovariectomized rats [4], the “Effect on bone mineral density of femur and fifth lumbar vertebrae (in words)” value is listed as “preserved bone mineral density at the level in sham-operated rats”. Further, the “Effect on uterus wet weight (in words)” value with ovariectomized rats [5] is recorded as “did not influence the wet weight of the uterus at all”.
In the case of `COc1ccc([C@@H]2CCc3cc(O)ccc3C2)c(N(CCO)Cc2ccc(OCC(C)(C)N(C)C)cc2)c1` [Example 814, (R)-6-{2-[[4-(2-Dimethylamino-2-methylpropoxy)benzyl](2-hydroxyethyl)amino]-4-methoxyphenyl}-5,6,7,8-tetrahydronaphthalen-2-ol], the Ki in data set [1] worked out at 8.4 nM. In data set [2], the activity at 0.1 µM stood at 95% and the IC50 was determined as 3.23 nM. Also, in the data set with ovariectomized rats [3] (setting [6]), the “Deoxypyridinoline, 5 weeks” value stood at 11.22 ± 1.12 nM/mg/dl and the “Deoxypyridinoline, 8 weeks” value is 15.48 ± 0.98 nM/mg/dl. In the data set with ovariectomized rats [3], the “Effect on excretion of deoxypyridinoline in urine (in words)” value is “significantly attenuated the excretion of deoxypyridinoline”. Further, in the data set on ovariectomized rats [4] (10 mg/kg orally), the “Bone Mineral Density, Distal femur” value stood at 0.248 ± 0.002 g/cm^2; the “Bone Mineral Density, Lumber 5” value is on record as 0.159 ± 0.001 g/cm^2; the “Bone Mineral Density, Whole femur” value is reported as 0.237 ± 0.002 g/cm^2. Besides, in the data set on ovariectomized rats [4], the “Effect on bone mineral density of femur and fifth lumbar vertebrae (in words)” value was “preserved bone mineral density at the level in sham-operated rats”. Moreover, the “Effect on uterus wet weight (in words)” value in the data set on ovariectomized rats [5] is on record as “slightly increased uterus wet weight to the same level”.
In the case of `O=C(c1ccc(OCCN2CCCCC2)cc1)c1c(-c2ccc(O)cc2)sc2cc(O)ccc12` [Raloxifene, 6-hydroxy-2-(4-hydroxyphenyl)-3-[4-(2-piperidinoethoxy)benzoyl]benz[b]thiophene, reference compound], in the data set with ovariectomized rats [3] (setting [7]), the “Deoxypyridinoline, 5 weeks” value turned out to be 8.83 ± 0.41 nM/mg/dl and the “Deoxypyridinoline, 8 weeks” value amounted to 10.87 ± 1.16 nM/mg/dl. Further, in the data set with ovariectomized rats [4] (3 mg/kg orally), the “Bone Mineral Density, Distal femur” value is 0.254 ± 0.002 g/cm^2; the “Bone Mineral Density, Lumber 5” value turned out to be 0.160 ± 0.003 g/cm^2; the “Bone Mineral Density, Whole femur” value was 0.239 ± 0.002 g/cm^2. Also, in the data set with ovariectomized rats [5], the “Effect on uterus wet weight (in words)” value is reported as “slightly increased uterus wet weight to the same level”.
